Where “and” joins values, the source holds several entries; their conditions need not be identical. Identical values can stand only once. Inconclusive results and toxic doses are left out.
Tested on: BDF1 mice, P388 leukemia ip, median survival T/C
Assay: NCI In Vivo Anticancer Drug Screen. Data for tumor model P388 Leukemia (intraperitoneal) in B6D2F1 (BDF1) mice
Conditions: endpoint: median survival time, higher = longer survival
How it was run: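 Read-out is survival of treated animals expressed relative to the vehicle group, as a T/C ratio.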

[1] = dose: 400.0 mg/kg/injection, schedule: Q04DX003 (ip), vehicle: saline with Tween-80
[2] = dose: 100.0 mg/kg/injection, schedule: Q01DX001 (ip), vehicle: saline with Tween-80
[3] = dose: 400.0 mg/kg/injection, schedule: Q01DX001 (ip), vehicle: saline with Tween-80
[4] = dose: 100.0 mg/kg/injection, schedule: Q04DX003 (ip), vehicle: saline with Tween-80
[5] = dose: 200.0 mg/kg/injection, schedule: Q04DX003 (ip), vehicle: saline with Tween-80
[6] = dose: 100.0 mg/kg/injection, schedule: Q04DX003 (ip), vehicle: saline
[7] = dose: 200.0 mg/kg/injection, schedule: Q04DX003 (ip), vehicle: saline
[8] = dose: 400.0 mg/kg/injection, schedule: Q04DX003 (ip), vehicle: saline
[9] = dose: 100.0 mg/kg/injection, schedule: Q01DX009 (ip), vehicle: saline with Tween-80
[10] = dose: 200.0 mg/kg/injection, schedule: Q01DX009 (ip), vehicle: saline with Tween-80

## CC(CNC(=O)CCOS(C)(=O)=O)NC(=O)CCOS(C)(=O)=O (stereo not given)
dose: 264.0 mg/kg/injection, schedule: Q04DX003 (ip), vehicle: saline with Tween-80
  T/C: 213 % of control
dose: 267.0 mg/kg/injection, schedule: Q04DX003 (ip), vehicle: saline with Tween-80
  T/C: 183 % of control
[1]
  T/C: 208 % of control and 209 % of control
dose: 500.0 mg/kg/injection, schedule: Q04DX003 (ip), vehicle: saline with Tween-80
  T/C: 212 % of control
dose: 600.0 mg/kg/injection, schedule: Q04DX003 (ip), vehicle: saline with Tween-80
  T/C: 109 % of control

## COc1cc(Nc2ncnc(N)c2[N+](=O)[O-])cc(OC)c1OC
[2]
  T/C: 87 % of control
[3]
  T/C: 87 % of control

## COc1ccc(C=Nc2c(N)[nH]c(=S)[nH]c2=O)cc1
dose: 100.0 mg/kg/injection, schedule: Q04DX002 (ip), vehicle: saline with Tween-80
  T/C: 115 % of control and 117 % of control
dose: 200.0 mg/kg/injection, schedule: Q04DX002 (ip), vehicle: saline with Tween-80
  T/C: 105 % of control and 117 % of control

## COc1cc2c[n+](C)c3c4cc5c(cc4ccc3c2cc1OC)OCO5
dose: 1.0 mg/kg/injection, schedule: Q01DX009 (ip), vehicle: water
  T/C: 150 % of control
dose: 4.0 mg/kg/injection, schedule: Q01DX009 (ip), vehicle: saline
  T/C: 161 % of control
dose: 5.0 mg/kg/injection, schedule: Q01DX009 (ip), vehicle: saline
  T/C: 185 % of control
dose: 6.25 mg/kg/injection, schedule: Q01DX009 (ip), vehicle: water
  T/C: 182 % of control
dose: 8.0 mg/kg/injection, schedule: Q01DX009 (ip), vehicle: saline
  T/C: 176 % of control
dose: 10.0 mg/kg/injection, schedule: Q01DX005 (ip), vehicle: saline
  T/C: 154 % of control
dose: 10.0 mg/kg/injection, schedule: Q01DX009 (ip), vehicle: saline
  T/C: 200 % of control
dose: 10.0 mg/kg/injection, schedule: Q04DX003 (ip), vehicle: saline
  T/C: 185 % of control
dose: 12.0 mg/kg/injection, schedule: Q01DX009 (ip), vehicle: water
  T/C: 177 % of control
dose: 12.5 mg/kg/injection, schedule: Q01DX009 (ip), vehicle: water
  T/C: 204 % of control
dose: 20.0 mg/kg/injection, schedule: Q01DX005 (ip), vehicle: saline
  T/C: 158 % of control
dose: 20.0 mg/kg/injection, schedule: Q04DX003 (ip), vehicle: saline
  T/C: 190 % of control
dose: 25.0 mg/kg/injection, schedule: Q01DX009 (ip), vehicle: water
  T/C: 100 % of control
dose: 28.8 mg/kg/injection, schedule: Q04DX003 (ip), vehicle: Klucel (hydroxypropylcellulose) (HPC)
  T/C: 193 % of control
dose: 40.0 mg/kg/injection, schedule: Q01DX005 (ip), vehicle: saline
  T/C: 183 % of control
dose: 43.2 mg/kg/injection, schedule: Q04DX003 (ip), vehicle: Klucel (hydroxypropylcellulose) (HPC)
  T/C: 196 % of control
dose: 48.0 mg/kg/injection, schedule: Q04DX003 (ip), vehicle: Klucel (hydroxypropylcellulose) (HPC)
  T/C: 200 % of control
dose: 50.0 mg/kg/injection, schedule: Q04DX002 (ip), vehicle: Klucel (hydroxypropylcellulose) (HPC)
  T/C: 225 % of control and 153 % of control
dose: 55.0 mg/kg/injection, schedule: Q04DX003 (ip), vehicle: other
  T/C: 172 % of control
dose: 72.0 mg/kg/injection, schedule: Q04DX003 (ip), vehicle: Klucel (hydroxypropylcellulose) (HPC)
  T/C: 188 % of control
dose: 80.0 mg/kg/injection, schedule: Q01DX005 (ip), vehicle: saline
  T/C: 103 % of control
dose: 80.0 mg/kg/injection, schedule: Q01DX009 (ip), vehicle: saline
  T/C: 186 % of control
dose: 80.0 mg/kg/injection, schedule: Q04DX003 (ip), vehicle: Klucel (hydroxypropylcellulose) (HPC)
  T/C: 200 % of control
dose: 80.0 mg/kg/injection, schedule: Q04DX003 (ip), vehicle: saline
  T/C: 260 % of control
dose: 92.0 mg/kg/injection, schedule: Q04DX003 (ip), vehicle: other
  T/C: 162 % of control
dose: 120.0 mg/kg/injection, schedule: Q01DX009 (ip), vehicle: saline
  T/C: 95 % of control
dose: 133.3 mg/kg/injection, schedule: Q04DX003 (ip), vehicle: Klucel (hydroxypropylcellulose) (HPC)
  T/C: 170 % of control
dose: 200.0 mg/kg/injection, schedule: Q04DX003 (ip), vehicle: Klucel (hydroxypropylcellulose) (HPC)
  T/C: 160 % of control

## ClC1=CCCCC1
dose: 150.0 mg/kg/injection, schedule: Q01DX009 (ip), vehicle: saline
  T/C: 120 % of control
dose: 225.0 mg/kg/injection, schedule: Q01DX009 (ip), vehicle: saline
  T/C: 115 % of control
dose: 335.0 mg/kg/injection, schedule: Q01DX009 (ip), vehicle: saline
  T/C: 120 % of control

## O=C(Nc1ccccc1C(F)(F)F)Oc1ccc(Cl)cc1Cl
[4]
  T/C: 122 % of control
[5]
  T/C: 109 % of control
[1]
  T/C: 118 % of control

## CN(CCCN(C)N=Nc1ccccc1C(=O)O)N=Nc1ccccc1C(=O)O
[6]
  T/C: 92 % of control
[7]
  T/C: 88 % of control
[8]
  T/C: 92 % of control

## CCCCCCCNC(=O)Nc1cc([N+](=O)[O-])ccc1C
[4]
  T/C: 100 % of control
[5]
  T/C: 100 % of control
[1]
  T/C: 104 % of control

## O=C(c1ccccc1)C1OC1c1ccc([N+](=O)[O-])cc1 (stereo not given)
dose: 100.0 mg/kg/injection, schedule: Q04DX003 (ip), vehicle: saline sonified
  T/C: 104 % of control
dose: 200.0 mg/kg/injection, schedule: Q04DX003 (ip), vehicle: saline sonified
  T/C: 100 % of control
dose: 400.0 mg/kg/injection, schedule: Q04DX003 (ip), vehicle: saline sonified
  T/C: 100 % of control

## CNC(=O)OCc1c(COC(=O)NC)c(-c2ccc(Cl)cc2Cl)n2c1CCC2
dose: 100.0 mg/kg/injection, schedule: Q01DX009 (ip), vehicle: other
  T/C: 158 % of control

## O=C(C[n+]1ccccc1)N/N=C/c1ccc(O)c(O)c1
[9]
  T/C: 100 % of control
[4]
  T/C: 95 % of control
[10]
  T/C: 104 % of control
[5]
  T/C: 86 % of control

## CCOC(=O)C1CNc2ccccc2N1 (stereo not given)
dose: 7.18 mg/kg/injection, schedule: Q04DX003 (ip), vehicle: Klucel (hydroxypropylcellulose) (HPC)
  T/C: 110 % of control
dose: 14.37 mg/kg/injection, schedule: Q04DX003 (ip), vehicle: Klucel (hydroxypropylcellulose) (HPC)
  T/C: 105 % of control
dose: 28.75 mg/kg/injection, schedule: Q01DX001 (ip), vehicle: Klucel (hydroxypropylcellulose) (HPC)
  T/C: 91 % of control
dose: 28.75 mg/kg/injection, schedule: Q04DX003 (ip), vehicle: Klucel (hydroxypropylcellulose) (HPC)
  T/C: 105 % of control
dose: 57.5 mg/kg/injection, schedule: Q01DX001 (ip), vehicle: Klucel (hydroxypropylcellulose) (HPC)
  T/C: 95 % of control
dose: 57.5 mg/kg/injection, schedule: Q04DX003 (ip), vehicle: Klucel (hydroxypropylcellulose) (HPC)
  T/C: 109 % of control
dose: 75.0 mg/kg/injection, schedule: Q01DX009 (ip), vehicle: Klucel (hydroxypropylcellulose) (HPC)
  T/C: 105 % of control
dose: 115.0 mg/kg/injection, schedule: Q01DX001 (ip), vehicle: Klucel (hydroxypropylcellulose) (HPC)
  T/C: 91 % of control
dose: 115.0 mg/kg/injection, schedule: Q01DX009 (ip), vehicle: Klucel (hydroxypropylcellulose) (HPC)
  T/C: 110 % of control
dose: 115.0 mg/kg/injection, schedule: Q04DX003 (ip), vehicle: Klucel (hydroxypropylcellulose) (HPC)
  T/C: 95 % of control
dose: 170.0 mg/kg/injection, schedule: Q01DX001 (ip), vehicle: Klucel (hydroxypropylcellulose) (HPC)
  T/C: 104 % of control

## CC1(C#N)CCC2c3ccccc3CCC2C1=O (stereo not given)
[6]
  T/C: 100 % of control
[7]
  T/C: 100 % of control
[8]
  T/C: 100 % of control

## COC(=O)CCN1CC1
[2]
  T/C: 101 % of control
dose: 200.0 mg/kg/injection, schedule: Q01DX001 (ip), vehicle: saline with Tween-80
  T/C: 107 % of control
[3]
  T/C: 92 % of control

## CC(C#N)Oc1cccc2ccccc12 (stereo not given)
dose: 2.0 mg/kg/injection, schedule: Q01DX009 (ip), vehicle: DMSO
  T/C: 96 % of control
dose: 3.0 mg/kg/injection, schedule: Q01DX009 (ip), vehicle: DMSO
  T/C: 115 % of control
dose: 4.5 mg/kg/injection, schedule: Q01DX009 (ip), vehicle: DMSO
  T/C: 110 % of control
dose: 6.0 mg/kg/injection, schedule: Q01DX009 (ip), vehicle: DMSO
  T/C: 110 % of control
dose: 12.0 mg/kg/injection, schedule: Q01DX009 (ip), vehicle: DMSO
  T/C: 120 % of control
dose: 12.5 mg/kg/injection, schedule: Q01DX009 (ip), vehicle: DMSO
  T/C: 88 % of control
dose: 25.0 mg/kg/injection, schedule: Q01DX009 (ip), vehicle: DMSO
  T/C: 88 % of control
dose: 100.0 mg/kg/injection, schedule: Q04DX003 (ip), vehicle: DMSO
  T/C: 100 % of control

## CNC(=O)Oc1ccc2ccccc2c1
[9]
  T/C: 111 % of control
[10]
  T/C: 113 % of control
dose: 400.0 mg/kg/injection, schedule: Q01DX009 (ip), vehicle: saline with Tween-80
  T/C: 103 % of control

From PubChem BioAssay AID328 (DTP/NCI, 2004)
